Test results from patent publication US4438142A, “Pharmaceutical combination” (Burroughs Wellcome Co., priority 1982, dated 1984).

Tested on: rat
Assay: Analgesic Activity: Rat Hot Plate Assay
Format: in vivo
Details: for ED50: po, 1 h, p.o. in rat, single substance, 60 min prior to testing, plate 45±1.0° C., ± standard error
From the text: The rat hot plate assay incorporated two modifications of the mouse hot plate assay originally described by Eddy et al., J. Pharmacol. Exp. Ther. 98, 121-137 (1950). The first modification was enlargement of the diameter of the cylindrical (water filled) copper plate to 25.0 cm to accommodate rats instead of mice. The second modification was the use of a temperature controller to regulate a 250 watt infrared heat lamp which was activated via a thermistor probe attached to the under surface of the copper plate, the temperature of which was thus maintained at 45±1.0° C. (N=28 measurements of the plate temperature under experimental conditions). The time required for a rat placed on the hot plate to respond by lifting, shaking or licking either of its hind or forelimbs was recorded in tenths of a second. Only animals responding in pretest within 6-13 seconds were used in the studies. The combination, comprising an intimate mixture of codeine phosphate with compound I, was suspended in 0.5% sodium carboxymethylcellulose and administered orally, by gavage, in a volume of 1.00 ml/100 g.b. wt. 60 min prior to testing. […] The reaction time of 18.3 seconds represented the sum of the mean pretest times of 40 untreated rats plus the time of 3 standard deviations of the mean. ED50 's and their standard errors were estimated from a graph of the dose-response curves using the method of Miller and Tainter (Proc. Soc. Exp. Biol. Med. 57, 261-262 (1944). Following this procedure the analgesic activities of codeine, compound I and the combination (codeine+compound I) were compared (Table I).

Row | SMILES | ED50 [mg/kg] | potentiation of the analgesic activity of codeine (upon oral administration, compound I with codeine, species not stated)
1 | COc1ccc2c3c1O[C@H]1[C@@H](O)C=C[C@H]4[C@@H](C2)N(C)CC[C@@]341 [Codeine Phosphate, reference compound] | 57 ± 35.3 | –
2 | O=C1CCCN1c1ccc2c(c1)OCO2 [Compound I, 1-(1,3-benzodioxol)-5-yl-2-pyrrolidinone] | 86 ± 16.5 | four to seven
